In publication PMC11375794, “Discovery of new Hsp90–Cdc37 protein–protein interaction inhibitors: in silico screening and optimization of anticancer activity” (RSC Advances, 2024):

Tests used:
SK-N-MC cells = assay: Apoptosis assay, annexin V–PE/SytoxBlue staining, flow cytometry; type: cell-based
Method: Apoptosis of SK-N-MC cells was evaluated by detecting phosphatidylserines using R-phycoerythrin–annexin V conjugate (R-PE annexin V; Invitrogen, Carlsbad, CA, USA) and nucleic acids in dead cells using SytoxBlue Dead Cell Stain (Invitrogen, Carlsbad, CA, USA), according to the manufacturer's instructions. Briefly, 2.5 × 10^5 SK-N-MC cells were seeded in six-well plates. After 24 hours, cells were washed with PBS and treated with 8c and 13g in 10 and 20 μM concentrations for 24 and 48 hours. The medium with detached cells was then collected, and attached cells were harvested and combined with the detached cells. Following two washing steps with cold PBS, cells were resuspended in 100 μL annexin-binding buffer (Invitrogen, Carlsbad, CA, USA) containing 2.5 μL annexin V–R-PE solution and 750 nM SytoxBlue, and incubated in the dark for 15 minutes at room temperature. Before measurement, 200 μL of annexin-binding buffer was added. A minimum of 10 000 events were collected using a flow cytometer (Attune NxT; Invitrogen, Carlsbad, CA, USA). Annexin V (ANV)-/SYTOX Blue (SB)-indicates viable cells, ANV+/SB− indicates early apoptotic cells, ANV+/SB+ indicates late apoptotic cells, and ANV−/SB+ indicates necrotic cells.

full-length Hsp90β = biological target: T1, full-length Hsp90β (Homo sapiens, UniProt P08238); assay: Ligand-observed protein NMR (STD, trNOESY) with Hsp90β; type: binding; details: for STD amplification factor (AMP): Hsp90β : ligand 1 : 200
T1 construct: For the protein expression of full-length Hsp90β, we received plasmids as a kind gift; made in house; host or cells: Escherichia coli strain Rosetta
Method: High-resolution NMR spectra of 13g were recorded using a Bruker Avance Neo 600 MHz spectrometer with a cryoprobe at 25 °C. Data collection employed pulse sequences from the Bruker library, and analysis was conducted using Bruker Topspin 4.2.0. The residual water signal was suppressed by excitation sculpting[54] with a 5 ms selective pulse, and a T1ρ filter of 100 ms was used to remove background protein resonances. The ^1H spectral widths were set at 5263 Hz. NMR samples were prepared in a buffer containing 50 mM potassium phosphate (pD 7.5), 100 mM KCl in D2O, 5 mM MgSO4, 2 mM DTT-d10, 0.02% NaN3, and 2% DMSO-d6. Full proton assignment (see ESI Fig. S6 and Table S2 ^†) was achieved using TOCSY, NOESY, ROESY, and HSQC spectra. The ^1H STD spectra were recorded with a protein : ligand ratio of 1 : 200, with protein and ligand concentrations of […] and 3 mM.
For the ^1H STD ligand epitope mapping experiments,[55] 65 536 data points (6.23 s and acquisition time) were used, with a relaxation delay of 1.63 s and 5120 scans. A short protein saturation time of 0.5 s was utilized to minimize the effect of relaxation on the STD amplification factors.[56] Selective on-resonance saturation of Hsp90β was performed at −0.827 ppm, with the transmitter offset referenced to 4.70 ppm. Off-resonance irradiation for the reference spectrum was applied at 30 ppm. The spectra were zero-filled and apodized using an exponential line-broadening function of 3 Hz. Errors in the STD amplification factor were estimated using the specified formula:[57] [drawing 46] NSTD and NREF are noise levels in STD and reference spectra. ISTD and IREF are signal intensities in STD and reference spectra. The relative errors of the STD amplification factors (Tables S3 and S6 ^†) for all protons are below 4%.
The trNOESY[58] spectra were recorded with 4096 data points in t2, 64 scans, 360 complex points in t1, and a relaxation delay of 1.5 s. […] The spectra were apodized with a squared sine bell function shifted by π/2 in both dimensions. Distances for 13g were calculated from the cross-peak volumes, assuming the integrated intensity of proton pairs 2′, 4′ and 1′, 5′ in the para-substituted phenyl ring with a distance of 2.5 Å and that the distances of the protons in pyrimidine ring are the same.

T1 sequence (P08238 whole entry): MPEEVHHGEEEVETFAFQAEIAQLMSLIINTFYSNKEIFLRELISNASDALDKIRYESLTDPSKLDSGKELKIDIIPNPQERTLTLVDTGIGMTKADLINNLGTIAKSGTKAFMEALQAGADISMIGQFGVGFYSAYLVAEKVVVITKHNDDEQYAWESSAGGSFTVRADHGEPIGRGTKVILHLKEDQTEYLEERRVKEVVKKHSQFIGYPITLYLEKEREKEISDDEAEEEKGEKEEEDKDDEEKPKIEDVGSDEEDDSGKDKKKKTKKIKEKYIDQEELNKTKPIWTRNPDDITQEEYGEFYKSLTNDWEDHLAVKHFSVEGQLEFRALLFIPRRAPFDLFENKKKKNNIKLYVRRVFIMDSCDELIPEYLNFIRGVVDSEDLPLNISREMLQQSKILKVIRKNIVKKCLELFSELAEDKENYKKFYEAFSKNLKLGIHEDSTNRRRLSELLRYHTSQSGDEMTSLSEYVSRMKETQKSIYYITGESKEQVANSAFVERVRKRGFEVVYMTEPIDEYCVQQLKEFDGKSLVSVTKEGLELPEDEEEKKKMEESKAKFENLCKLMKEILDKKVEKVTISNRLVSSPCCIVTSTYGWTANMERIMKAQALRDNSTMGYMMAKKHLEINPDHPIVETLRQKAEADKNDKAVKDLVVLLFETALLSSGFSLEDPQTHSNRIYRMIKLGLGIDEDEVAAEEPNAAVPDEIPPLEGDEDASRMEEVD

| STD amplification factor (AMP) (full-length Hsp90β; proton 1'') | STD amplification factor (AMP) (full-length Hsp90β; proton 3'') | STD amplification factor (AMP) (full-length Hsp90β; protons 1', 5') | STD amplification factor (AMP) (full-length Hsp90β; protons 1, 5) | STD amplification factor (AMP) (full-length Hsp90β; protons 2', 4') | STD amplification factor (AMP) (full-length Hsp90β; protons 2,3,4) | Structure (SMILES) | proportion of apoptotic cells (SK-N-MC cells; 10 μM, 24 hours) | proportion of apoptotic cells (SK-N-MC cells; 10 μM, 48 hours) | proportion of apoptotic cells (SK-N-MC cells; 20 μM, 24 hours) | proportion of apoptotic cells (SK-N-MC cells; 20 μM, 48 hours) | binding to Hsp90β by transferred NOESY (trNOESY) (full-length Hsp90β; negative NOEs in the presence of Hsp90β) | induction of apoptosis (qualitative) (SK-N-MC cells; 10 μM and 20 μM, 24 and 48 hours) |
| --- | --- | --- | --- | --- | --- | --- | --- | --- | --- | --- | --- | --- |
| 0.83 | 4.88 | 1.75 | 2.18 | 1.78 | 2.14 | O=C(NCCOc1ccccc1)c1ccc(Nc2cc(N3CCNCC3)ncn2)cc1 [Compound 13g, N-(2-Phenoxyethyl)-4-((6-(piperazin-1-yl)pyrimidin-4-yl)amino)benzamide] | 27% | 11.4% | 42.8% | 56.8% | confirmed | – |
| – | – | – | – | – | – | CN(CCOc1ccccc1)C(=O)c1csc(Nc2cc(N3CCNCC3)ncn2)n1 [Compound 8c, N-Methyl-N-(2-phenoxyethyl)-2-((6-(piperazin-1-yl)pyrimidin-4-yl)amino)thiazole-4-carboxamide] | – | – | 87.5% | 87.7% | – | significantly induced apoptosis |
